Experiments:
yeast CSE enzyme (CYS3) [1] = target: T1, yeast CSE enzyme (CYS3) (Saccharomyces cerevisiae, UniProt P31373); assay: H2S production from SPRC by LC-MS/MS (sulfide dibimane); type: biochemical; settings: 473 uM PAG; 473 uM SPRC as substrate; complete inhibition stated in words
T1 construct: full-length CYS3 gene amplified from S288C gDNA, expressed in E. coli (pTrc-CYS3), nickel column, SUMO-tag cut off
T1 sequence (P31373 2-394): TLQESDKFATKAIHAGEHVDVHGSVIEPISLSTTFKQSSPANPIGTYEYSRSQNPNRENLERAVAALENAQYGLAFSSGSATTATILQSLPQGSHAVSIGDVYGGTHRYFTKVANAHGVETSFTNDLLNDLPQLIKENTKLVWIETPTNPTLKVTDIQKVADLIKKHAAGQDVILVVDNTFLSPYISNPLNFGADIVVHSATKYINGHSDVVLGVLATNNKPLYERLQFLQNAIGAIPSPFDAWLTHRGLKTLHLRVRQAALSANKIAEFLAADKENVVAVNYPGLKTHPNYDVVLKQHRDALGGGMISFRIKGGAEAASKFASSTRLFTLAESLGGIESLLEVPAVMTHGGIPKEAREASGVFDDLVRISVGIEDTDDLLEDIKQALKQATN

yeast CSE enzyme (CYS3) [2] = target: T1, yeast CSE enzyme (CYS3); assay: H2S production by LC-MS/MS and substrate consumption; type: biochemical

Structure (SMILES): C#CCC(N)C(=O)O (racemic) [PAG, propargylglycine]
- H2S production from SPRC by LC-MS/MS (sulfide dibimane) (yeast CSE enzyme (CYS3) [1]): propargylglycine (PAG) completely inhibited the hydrogen sulfide production of CYS3 by using SPRC

Structure (SMILES): N[C@@H](CCSC[C@H](N)C(=O)O)C(=O)O [CTT, L-cystathionine]
- H2S production by LC-MS/MS and substrate consumption (yeast CSE enzyme (CYS3) [2]; 473 uM CTT): hydrogen sulfide production increased rapidly whereas the amount of L-cystathionine (CTT) decreased accordingly

Structure (SMILES): C#CCSC[C@H](N)C(=O)O [SPRC, S-propargyl-cysteine]
- H2S production by LC-MS/MS and substrate consumption (yeast CSE enzyme (CYS3) [2]; 473 uM SPRC): SPRC elimination was accomplished with increased level of hydrogen sulfide in the CYS3 mixture
